The record followed here is US20230263897A1, “CONJUGATE OF GALNAC AND SAPONIN, […] COMPOSITION COMPRISING SAID CONJUGATE AND A GALNAC-OLIGO[…]” (SAPREME TECHNOLOGIES B.V., priority 2020, published 2023).

Broadly, the IC50 is the point on the concentration scale where inhibition reaches its midpoint.

Data set [1] deals with ApoB. Kind of data set: ApoB gene silencing (qPCR) in Huh7 cells. The format is cell-based, human. Conditions: for IC50: + 4000 nM trivalent-GalNAc-L-SO1861. The protocol:
(§1) ApoB gene silencing in HepG2 (ASGPR1*) cells or Huh7 (ASPGR1^+/−) was determined. […] Thus, a conjugate comprising a labile bond between any two molecules forming the conjugate or comprised by the conjugate, will be cleaved at a position in the labile linker, therewith dissociating the two linked or bound molecules. An example is the cleavage of a hydrazone bond under acidic conditions as apparent in the endosome and lysosome of mammalian cells such as human cells.
(§2) ApoB gene silencing HepG2 (ASGPR1*) cells and Huh7 (ASPGR1^+/−) cells was determined.
(§3) RNA from cells was isolated and analysed according to standard protocols (Biorad). qPCR primers that were used are indicated in Table A2.

Data set [2] deals with ApoB. Nature of the data set: ApoB gene silencing (qPCR) in HepG2 cells. The format is cell-based, human. The protocol:
as §1, §2, §3
In general terms: In qPCR the cycle at which signal appears reflects the starting amount.

For a further data set, the system named is ApoB RNA. Nature of the data set: ApoB RNA expression analysis on primary human hepatocytes. The format is cell-based. As to the method: RNA from cells was isolated using TRI Reagent® Solution (Thermo Scientific) according to the manufacturer's instruction. Conversion into cDNA was performed using iScript™ cDNA Synthesis Kit (BioRad) using standard protocols. ApoB expression levels and levels of specific hepatocyte housekeeping genes were determined using quantitative real-time PCR assays (qRT-PCR) using iTaq™ Universal SYBR® Green Supermix (BioRad) and the Light Cycler 480 (Roche Diagnostics, Rotkreuz, Switzerland) with specific DNA primers, listed in Table A4. Analysis was done by the ΔCt method to determine ApoB expression relative to 2 hepatocyte-specific housekeeping control mRNAs. Each analysis reaction was performed in triplicate.

Data set [3] has as its system primary human hepatocytes. Kind of data set: Cell viability assay (CTG) on primary human hepatocytes. Conditions: for effect on cell viability / IC50: primary human hepatocytes. As to the method: The ‘trivalent-GalNAc’ as depicted in FIGS. 1 and 8 is a typical (GalNAc)3Tris conjugate suitable for coupling to an effector molecule or to saponin. […] Primary hepatocytes express receptor at high density—allow for targeting.
Primary hepatocytes which highly express ASGPR1 (ASGPR1*) and hepatocyte cells of cell-line Huh7 (ASGPR1^+/−) were treated with a concentration range of trivalent-GalNAc-SO1861 (TrivalentGalNAc-SPT001), either or not in the presence of 10 μM CD71-saporin (monoclonal antibody OKT-9 targeting CD71 conjugated to the protein toxin saporin; FIG. 30D).
After treatment the cells were incubated for 72 hr at 37° C. before the cell viability was determined by a CTG-assay, performed according to the manufacturer's instruction (CellTiter-Glo® 2.0 Cell Viability Assay, Promega). Briefly, the cell plate was first equilibarated to RT for 30 minutes. Next, to each well containing 120 μL treatment media 120 μL CTG solution was added. The plate briefly mixed (10 sec, 600 rpm) and incubated for approximately 10 minutes in the dark at RT. Subsequently, the luminescence signal was measured on a Spectramax ID5 plate reader (Molecular Devices). For quantification, the background signal of ‘medium only’ wells was subtracted from all other wells before the cell viability percentage of treated/untreated cells was calculated by dividing the background corrected signal of treated wells over the background corrected signal of the untreated wells (×100).
Cryopreserved primary human hepatocytes (Cytes Biotechnologies S.L., Spain) were thawed in hepatocyte thawing media (Cytes Biotechnologies S.L., Spain). Cells were re-suspended in hepatocyte plating media (Cytes Biotechnologies S.L., Spain). Cells were seeded onto collagen-I coated plates at a density of 215.600 cells/well or 66.600 cells/well for the 48 or 96-well plates (Greiner BioOne). Cells were pre-cultured for 4-6 hrs at 37° C. allowing for cell attachment to cell culture plates before the start of treatment. Plating medium was replaced by 315 μl or 108 μl maintenance media (Cytes Biotechnologies S.L., Spain), after which conjugates were added from a 10× concentrated stock solution in PBS. Plates were incubated for 72 hr at 37° C. being harvested for gene expression and cell viability analysis.

For the next data set, the system named is ApoB protein. Nature of the data set: ApoB protein expression by Huh7 cells. The data set is classed as cell-based, human.
The test system of data set [4] is HSP27. Kind of data set: HSP27 gene silencing (qPCR) in HepG2 cells. The data set is classed as cell-based, human. Conditions: + 4000 nM SO1861-EMCH. The protocol:
(§4) HSP27 gene silencing in HepG2 and Huh7 cells was determined.
as §3

The test system of data set [5] is HSP27. Nature of the data set: HSP27 gene silencing (qPCR) in Huh7 cells. The data set is classed as cell-based, human. The conditions noted are these: + 4000 nM SO1861-EMCH. The protocol: as §4, §3
[6] abbreviates: + 4000 nM trivalent-GalNAc-L-SO1861.

Where two headings read alike, the source gives them in different places. [BNANC] = BNA^NC bridged nucleic acid sugar; d = 2'-deoxy (DNA) A value given as a limit tells only on which side of the number the result lay.

Consider “trivalent-GalNAc-S-ApoBBNA: ApoBBNA (SEQ ID NO: 2) conjugated to trivalent-GalNAc, stable conjugation, FIG. 7 (antisense GCCTCAGTCTGCTTCGCACC; sugars from the 5' end [BNANC]5 d10 [BNANC]5, all phosphorothioate, methylation of C not given here; further chemistry not fully specified)”, for which the IC50 came to 700 nM in the data set with ApoB [1], 10 nM with ApoB [2] (+ 4000 nM SO1861-EMCH) and 50 nM in the data set with ApoB [2] (setting [6]).

In the case of “trivalent-GalNAc-L-ApoBBNA: ApoBBNA (SEQ ID NO: 2) conjugated to trivalent-GalNAc, labile conjugation, FIG. 6 (antisense GCCTCAGTCTGCTTCGCACC; BNA oligo, pattern not given here, trivalent GalNAc via labile linker, position not given here)”, the concentration for half-maximal inhibition (IC50) in the data set on ApoB [1] is 700 nM; in the data set on ApoB [2] (+ 4000 nM SO1861-EMCH), 10 nM; in the data set with ApoB [2] (setting [6]), 50 nM; in the data set on ApoB RNA (+ 250 nM (GalNAc)3-SO1861), 15 nM; in the data set with ApoB RNA (+ 2000 nM SO1861-EMCH), 8 nM; with ApoB RNA (alone) it was over 1000 nM. Besides, the IC50 in data set [3] (read-out: IC50 decreased cell viability, + 2000 nM SO1861-EMCH, FIG. 24 B) came to 600 nM. Besides, the “effect on cell viability” value in data set [3] (+ 250 nM (GalNAc)3-SO1861, FIG. 24 B) was “without affecting cell viability significantly”; in data set [3] (alone, FIG. 24 B), “no effects on cell viability were observed”.

Regarding “TrivalentGalNAc-ApoBBNA: conjugate of trivalent GalNAc and the ApoB antisense BNA oligonucleotide ApoBBNA (SEQ ID NO: 2); L or S linker not stated (antisense GCCTCAGTCTGCTTCGCACC; sugars from the 5' end [BNANC]5 d10 [BNANC]5, all phosphorothioate, methylation of C not given here; trivalent GalNAc conjugated via linker, attachment via 5'-thiol C6 linker implied)”, the “lowering of ApoB mRNA expression” value in the data set with ApoB [1] (+ 300 nM TrivalentGalNAc-SPT001, FIG. 31B) is “Neither TrivalentGalNAc-ApoBBNA, nor the combination of TrivalentGalNAc-ApoBBNA and TrivalentGalNAc-SPT001 induce lowering of the ApoB mRNA expression”; in the data set on ApoB [1] (alone, FIG. 31B), “Neither TrivalentGalNAc-ApoBBNA, nor the combination of TrivalentGalNAc-ApoBBNA and TrivalentGalNAc-SPT001 induce lowering of the ApoB mRNA expression”. Further, the “lowering of ApoB protein expression” value with ApoB protein (+ 300 nM TrivalentGalNAc-SPT001, FIG. 32B) was “Neither TrivalentGalNAc-ApoBBNA, nor the combination of TrivalentGalNAc-ApoBBNA and TrivalentGalNAc-SPT001 induce lowering of the ApoB protein expression”; with ApoB protein (alone, FIG. 32B), “Neither TrivalentGalNAc-ApoBBNA, nor the combination of TrivalentGalNAc-ApoBBNA and TrivalentGalNAc-SPT001 induce lowering of the ApoB protein expression”.

Turning to `CC(=O)OC1C(C)OC(OC2C(C)OC(OC(=O)[C@]34CCC(C)(C)CC3C3=CCC5[C@@]6(C)CC[C@H](OC7OC(C(=O)O)C(O)C(OC8OCC(O)C(O)C8O)C7OC7OC(CO)C(O)C(O)C7O)[C@@](C)(/C=N/NC(=O)CCCCCN7C(=O)C=CC7=O)C6CC[C@@]5(C)[C@]3(C)C[C@H]4O)C(OC3OC(C)C(OC4OCC(O)C(OC5OC(CO)C(O)C(O)C5O)C4O)C(O)C3O)C2O)C(O)C1OC1OCC(O)C(O)C1O` (stereo partly shown) [SO1861-EMCH], the “factor of potency increase when cell viability of liver cells is considered” value in data set [3] (primary hepatocytes, + 10 μM CD71-saporin) was about 10 factor.

In the case of “trivalent-GalNAc-L-HSP27BNA: HSP27BNA (SEQ ID NO: 1) conjugated to trivalent-GalNAc, labile conjugation, FIG. 6 (antisense GGCACAGCCAGTGGCG; sugars from the 5' end [BNANC]3 d10 [BNANC]3, all phosphorothioate, methylation of C not given here; further chemistry not fully specified)”, the values for the IC50 with HSP27 [4] and with HSP27 [5] were 0.1 nM and 3 nM, respectively.

Take `CC(=O)OC1C(C)OC(OC2C(C)OC(OC(=O)[C@]34CCC(C)(C)CC3C3=CCC5[C@@]6(C)CC[C@H](OC7OC(C(=O)O)C(O)C(OC8OCC(O)C(O)C8O)C7OC7OC(CO)C(O)C(O)C7O)[C@@](C)(C=O)C6CC[C@@]5(C)[C@]3(C)C[C@H]4O)C(OC3OC(C)C(OC4OCC(O)C(OC5OC(CO)C(O)C(O)C5O)C4O)C(O)C3O)C2O)C(O)C1OC1OCC(O)C(O)C1O` (stereo partly shown) [SO1861, reference compound]: the IC50 in data set [3] (read-out: SO1861 IC50 for CD71-saporin mediated cell killing, + 10 μM CD71-saporin (non-effective concentration)) is 200 nM.

In the case of “trivalent-GalNAc-S-HSP27BNA: HSP27BNA (SEQ ID NO: 1) conjugated to trivalent-GalNAc, stable conjugation, FIG. 7 (GGCACAGCCAGTGGCG; sugars from the 5' end [BNANC]3 d10 [BNANC]3, all phosphorothioate, methylation of C not given here; further chemistry not fully specified)”, the results for the IC50 in the data set on HSP27 [4] and in the data set with HSP27 [5] were 0.1 nM and 3 nM, respectively.
